Assay results taken from patent publication US20080145313A1, “Compositions and Methods for the Treatment and Prevention of Neoplastic Disorders” (Genesis Research & Development Corporation Limited, priority 2006, published 2008).

System: target transcript mRNA in A549 cells
Experiment: Level of mRNA of target transcript in A549 cells by quantitative RT-PCR (Tables 12 and 13)
Type: cell-based, human
Settings: 24 h post-transfection; for mRNA knockdown of energy and metabolism gene target transcript, 10 nM: 10 nM siRNA
Procedure: A549 cells were transfected as described before with 0.1, 1.0 and 10 nM siRNA as listed in Tables 10 and 11 and the relative mRNA levels quantified 24 h post-transfection. RNA was purified from cells using Trizol® extraction as per the manufacturer's protocol (Invitrogen). cDNA was prepared by digesting approximately 200 ng purified RNA with DNAse I (Invitrogen) for 15 minutes at room temperature, followed by 15 minutes at 65° C. in the presence of 25 mM EDTA. 30 ng random primers were added and incubated for 10 minutes at 65° C., 1 minute on ice; Superscript® III polymerase (Invitrogen) was added in presence of 5 nM DTT (Invitrogen) and 1 mM deoxyribonucleotides (Invitrogen), and the reaction incubated at 25° C. for 5 minutes, followed by an hour at 50° C. cDNA was diluted 1:3 in 10 mM Tris pH 7.0, and quantitative RT-PCR carried out on an ABI Prism 7900HT (Applied Biosciences, Inc., Foster City, Calif.) using FastStart TaqMan SYBRGreen (Roche, Basel, Switzerland) or Platinum SYBR Green (Invitrogen) and 360 nM of the primers specific for gene targets and housekeeping genes HPRT and Lamin. Reduction in target mRNA levels following siRNA transfection are given in Tables 12 and 13, together with the gene specific primer sequences. Primer sequences used for the housekeeping genes HPRT and Lamin are given in SEQ ID NO: 4885-4888.

| Substance | mRNA knockdown of energy and metabolism gene target transcript, 0.1 nM (0.1 nM siRNA) | mRNA knockdown of energy and metabolism gene target transcript, 1 nM (1 nM siRNA) | mRNA knockdown of energy and metabolism gene target transcript, 10 nM | mRNA knockdown of transporter gene target transcript, 0.1 nM (0.1 nM siRNA) | mRNA knockdown of transporter gene target transcript, 1 nM (1 nM siRNA) |
| --- | --- | --- | --- | --- | --- |
| 1687 (CAACAGGATCTTCGGCCCCATCTG; chemistry not given here) [compound 1687] | − (<50% mRNA knockdown) | − (<50% mRNA knockdown) |  |  |  |
| 3539 (GCCAAGGGTAGGAGCCCTACACTAGG; chemistry not given here) [compound 3539] | − (<50% mRNA knockdown) | − (<50% mRNA knockdown) | − (<50% mRNA knockdown) |  |  |
| 3575 (AGCGGTTTTTCTCCAAGTACTC; chemistry not given here) [compound 3575] | +++ (>90% mRNA knockdown) | +++ (>90% mRNA knockdown) |  |  |  |
| 1691 (TTGCCAACAGGATCTTCGGCCCCATCTG; chemistry not given here) [compound 1691] | − (<50% mRNA knockdown) | ++ (70-90% mRNA knockdown) |  |  |  |
| 3592 (TGCCAAAAACAGAGGAGCAAGATACAGGC; chemistry not given here) [compound 3592] | − (<50% mRNA knockdown) | + (50-70% mRNA knockdown) |  |  |  |
| 3585 (AACAGAGGAGCAAGATACAGGC; chemistry not given here) [compound 3585] | ++ (70-90% mRNA knockdown) | ++ (70-90% mRNA knockdown) |  |  |  |
| 3593 (TTGCCAAAAACAGAGGAGCAAGATACAGGC; chemistry not given here) [compound 3593] | − (<50% mRNA knockdown) | + (50-70% mRNA knockdown) |  |  |  |
| SEQ ID NO: 4914: siRNA targeting SLC19A2 (ThTr1) (chain 1 TTATATAACCAACTGCAAACACAGC; chain 2 UUAUAUAACCAACUGCAAACACAGC; chemistry not given here; one strand in two spellings) |  |  |  | ++ (70-90% mRNA knockdown) | +++ (>90% mRNA knockdown) |
| 1689 (GCCAACAGGATCTTCGGCCCCATCTG; chemistry not given here) [compound 1689] | − (<50% mRNA knockdown) | ++ (70-90% mRNA knockdown) |  |  |  |
| 3533 (AGATTGGAAGCCACCACATCAGTCTCAACA; chemistry not given here) [compound 3533] | − (<50% mRNA knockdown) | ++ (70-90% mRNA knockdown) |  |  |  |
| 3545 (ACTACCGCGAGCTGCGCTGGTT; chemistry not given here) [compound 3545] | ++ (70-90% mRNA knockdown) | ++ (70-90% mRNA knockdown) | +++ (>90% mRNA knockdown) |  |  |
| 3553 (TGAAGGCAACTACCGCGAGCTGCGCTGGTT; chemistry not given here) [compound 3553] | ++ (70-90% mRNA knockdown) | ++ (70-90% mRNA knockdown) |  |  |  |
| 1686 (AACAGGATCTTCGGCCCCATCTG; chemistry not given here) [compound 1686] | − (<50% mRNA knockdown) | − (<50% mRNA knockdown) |  |  |  |
| 1699 (AAGAACGTGAAGCTCCCTGACGCCTA; chemistry not given here) [compound 1699] | − (<50% mRNA knockdown) | ++ (70-90% mRNA knockdown) |  |  |  |
| 3547 (CAACTACCGCGAGCTGCGCTGGTT; chemistry not given here) [compound 3547] | ++ (70-90% mRNA knockdown) | ++ (70-90% mRNA knockdown) | +++ (>90% mRNA knockdown) |  |  |
| 3564 (GCAAGAACGGTGGGATTTACT; chemistry not given here) [compound 3564] | ++ (70-90% mRNA knockdown) | +++ (>90% mRNA knockdown) |  |  |  |
| 3560 (CGGCTACGGATGTTGGGATCATTATTA; chemistry not given here) [compound 3560] | ++ (70-90% mRNA knockdown) | ++ (70-90% mRNA knockdown) |  |  |  |
| 3535 (AGGGTAGGAGCCCTACACTAGG; chemistry not given here) [compound 3535] | ++ (70-90% mRNA knockdown) | +++ (>90% mRNA knockdown) |  |  |  |
| 3565 (AGCAAGAACGGTGGGATTTACT; chemistry not given here) [compound 3565] | ++ (70-90% mRNA knockdown) | +++ (>90% mRNA knockdown) |  |  |  |
| 1697 (GAACGTGAAGCTCCCTGACGCCTA; chemistry not given here) [compound 1697] | ++ (70-90% mRNA knockdown) | + (50-70% mRNA knockdown) |  |  |  |
| 3537 (CAAGGGTAGGAGCCCTACACTAGG; chemistry not given here) [compound 3537] | ++ (70-90% mRNA knockdown) | +++ (>90% mRNA knockdown) | +++ (>90% mRNA knockdown) |  |  |
| 3597 (CAACAGGAAGATCCTGCTCATCAG; chemistry not given here) [compound 3597] | + (50-70% mRNA knockdown) | ++ (70-90% mRNA knockdown) |  |  |  |
| 3543 (TGGAGCCAAGGGTAGGAGCCCTACACTAGG; chemistry not given here) [compound 3543] | ++ (70-90% mRNA knockdown) | ++ (70-90% mRNA knockdown) |  |  |  |
| 3550 (AGGCAACTACCGCGAGCTGCGCTGGTT; chemistry not given here) [compound 3550] | ++ (70-90% mRNA knockdown) | ++ (70-90% mRNA knockdown) | +++ (>90% mRNA knockdown) |  |  |
| 3549 (GGCAACTACCGCGAGCTGCGCTGGTT; chemistry not given here) [compound 3549] | + (50-70% mRNA knockdown) | +++ (>90% mRNA knockdown) | ++ (70-90% mRNA knockdown) |  |  |
| 3584 (ACAGAGGAGCAAGATACAGGC; chemistry not given here) [compound 3584] | ++ (70-90% mRNA knockdown) | ++ (70-90% mRNA knockdown) |  |  |  |
